According to patent US8026218B2, “Bifunctional analgesic compounds for opioid receptor agonists and neurokinin-1 receptor antagonists” (The University of Arizona, priority 2006, dated 2011):
Like-named read-outs stand apart in the source and are kept apart here. Peptide text beside a SMILES is read from it.

Experiments:
rat NK1 (rNK1) receptor = molecular target: T1, rat NK1 (rNK1) receptor (Rattus norvegicus, UniProt P14600); assay: Radioligand competition binding, [3H]substance P, rNK1/CHO membranes
T1 construct: expressed in transfected cells; host or cells: CHO (rNK-1/CHO cell line from Dr. James Krause)

[1] = molecular target: T2, human NK1 receptor (hNK1) (Homo sapiens, UniProt P25103); assay: Radioligand competition binding, [3H]-Substance P, hNK1
T2 construct: expressed in transfected cells

[2] = molecular target: T3, human δ opioid receptors (hDOR) (Homo sapiens, UniProt P41143); assay: [35S]GTP-γ-S binding assay, hDOR; assay type: biochemical; details: for EC50: read-out: GTP hDOR EC50
T3 construct: expressed in transfected cells; host or cells: HN9.10 neuroblastoma cell line, pCDNA3, neomycin-selected clones

[3] = molecular target: T4, rat μ opioid receptors (rMOR) (Rattus norvegicus, UniProt P33535); assay: biochemical; assay type: biochemical; details: for EC50: read-out: GTP rMOR EC50
T4 construct: expressed in transfected cells; host or cells: HN9.10 neuroblastoma cell line, pCDNA3, neomycin-selected clones

δ opioid receptors (MVD) = molecular target: T5, δ opioid receptors (MVD) (Mus musculus, UniProt P32300); assay: Mouse isolated vas deferens (MVD) assay, opioid agonist
T5 construct: from tissue; host or cells: mouse (ICR) isolated vas deferens

μ opioid receptors (GPI) = assay: Guinea pig isolated ileum (GPI) assay, opioid agonist;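 note: inhibition of electrically evoked contractions (0.1 Hz, 0.4 msec, supramaximal voltage) in organ baths at 37 °C, contraction height 3 min after each cumulative dose versus the 1 min before dosing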
[4] = molecular target: T6, Substance P receptors (guinea pig NK1) (Cavia porcellus, UniProt P30547); assay: Guinea pig isolated ileum (GPI) assay with substance P stimulation in presence of 1 μM naloxone
T6 construct: from tissue; host or cells: guinea pig (Hartley) ileum LMMP, 1 μM naloxone present

[5] = Table 32, read-out: GTP hDOR EMax
[6] = Table 32, read-out: GTP rMOR EMax
[7] = Table 35, read-out: GPI/LMMP μ-agonist IC50
[8] = Table 39, read-out: GTP binding rMOR Emax
[9] = Table 39, read-out: GTP binding hDOR Emax
[10] = Table 39, read-out: GPI/LMMP opioid(mu) agonist (IC50; nM)
[11] = GPI/LMMP SP antagonist Ke (nM), Table 35
[12] = Table 36, read-out: GPI μ-agonist IC50
[13] = GPI SP-antagonist Ke (nM), Table 36

T5 sequence (P32300 whole entry): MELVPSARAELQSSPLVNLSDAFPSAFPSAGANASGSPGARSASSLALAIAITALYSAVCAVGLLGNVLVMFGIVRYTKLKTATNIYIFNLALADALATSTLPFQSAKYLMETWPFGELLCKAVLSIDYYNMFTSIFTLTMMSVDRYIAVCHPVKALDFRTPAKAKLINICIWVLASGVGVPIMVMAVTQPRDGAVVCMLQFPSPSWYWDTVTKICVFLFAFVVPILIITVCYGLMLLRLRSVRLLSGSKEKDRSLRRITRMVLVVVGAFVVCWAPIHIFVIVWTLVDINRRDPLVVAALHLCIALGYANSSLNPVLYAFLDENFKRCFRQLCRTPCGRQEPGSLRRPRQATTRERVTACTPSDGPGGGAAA
T4 sequence (P33535 whole entry): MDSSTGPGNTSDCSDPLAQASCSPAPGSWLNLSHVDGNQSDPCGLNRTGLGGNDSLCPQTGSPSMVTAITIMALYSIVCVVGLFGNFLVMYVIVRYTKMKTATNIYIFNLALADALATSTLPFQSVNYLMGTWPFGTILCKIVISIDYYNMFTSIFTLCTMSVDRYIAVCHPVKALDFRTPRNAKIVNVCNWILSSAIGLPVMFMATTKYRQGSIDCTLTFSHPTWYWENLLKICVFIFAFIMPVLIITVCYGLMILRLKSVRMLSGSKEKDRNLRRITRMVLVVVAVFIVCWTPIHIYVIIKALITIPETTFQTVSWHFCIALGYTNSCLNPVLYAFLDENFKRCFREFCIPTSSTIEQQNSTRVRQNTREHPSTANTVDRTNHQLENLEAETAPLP
T6 sequence (P30547 whole entry): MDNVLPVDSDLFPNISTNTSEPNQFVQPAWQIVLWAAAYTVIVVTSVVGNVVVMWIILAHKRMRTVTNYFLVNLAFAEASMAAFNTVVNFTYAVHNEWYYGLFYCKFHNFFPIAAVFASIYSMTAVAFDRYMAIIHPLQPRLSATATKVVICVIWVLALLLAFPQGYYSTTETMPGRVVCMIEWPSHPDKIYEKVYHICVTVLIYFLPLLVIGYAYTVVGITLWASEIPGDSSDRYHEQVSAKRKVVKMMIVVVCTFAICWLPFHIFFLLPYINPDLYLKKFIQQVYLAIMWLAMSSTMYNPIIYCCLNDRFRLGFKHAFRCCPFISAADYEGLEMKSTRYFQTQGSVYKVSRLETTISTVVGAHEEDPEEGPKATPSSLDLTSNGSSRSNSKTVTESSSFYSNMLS
T2 sequence (P25103 whole entry): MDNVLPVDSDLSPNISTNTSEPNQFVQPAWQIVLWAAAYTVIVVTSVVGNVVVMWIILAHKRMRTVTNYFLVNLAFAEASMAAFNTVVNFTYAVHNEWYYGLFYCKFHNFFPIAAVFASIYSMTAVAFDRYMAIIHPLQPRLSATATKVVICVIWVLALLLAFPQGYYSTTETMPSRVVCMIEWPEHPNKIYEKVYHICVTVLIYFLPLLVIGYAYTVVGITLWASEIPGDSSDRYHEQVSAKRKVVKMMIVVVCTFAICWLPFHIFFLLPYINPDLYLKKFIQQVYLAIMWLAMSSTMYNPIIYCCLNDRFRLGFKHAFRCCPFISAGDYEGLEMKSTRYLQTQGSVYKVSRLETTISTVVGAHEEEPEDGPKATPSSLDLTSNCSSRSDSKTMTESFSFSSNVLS
T3 sequence (P41143 whole entry): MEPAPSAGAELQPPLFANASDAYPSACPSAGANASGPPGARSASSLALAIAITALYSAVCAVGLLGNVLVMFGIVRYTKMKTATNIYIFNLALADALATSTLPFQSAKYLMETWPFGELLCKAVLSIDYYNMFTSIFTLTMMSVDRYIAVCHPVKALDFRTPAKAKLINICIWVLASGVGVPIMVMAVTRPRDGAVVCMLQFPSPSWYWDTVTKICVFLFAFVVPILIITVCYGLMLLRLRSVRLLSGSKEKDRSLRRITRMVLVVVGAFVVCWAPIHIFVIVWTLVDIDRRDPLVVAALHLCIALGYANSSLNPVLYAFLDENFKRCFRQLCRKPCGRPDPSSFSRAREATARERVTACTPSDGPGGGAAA
T1 sequence (P14600 whole entry): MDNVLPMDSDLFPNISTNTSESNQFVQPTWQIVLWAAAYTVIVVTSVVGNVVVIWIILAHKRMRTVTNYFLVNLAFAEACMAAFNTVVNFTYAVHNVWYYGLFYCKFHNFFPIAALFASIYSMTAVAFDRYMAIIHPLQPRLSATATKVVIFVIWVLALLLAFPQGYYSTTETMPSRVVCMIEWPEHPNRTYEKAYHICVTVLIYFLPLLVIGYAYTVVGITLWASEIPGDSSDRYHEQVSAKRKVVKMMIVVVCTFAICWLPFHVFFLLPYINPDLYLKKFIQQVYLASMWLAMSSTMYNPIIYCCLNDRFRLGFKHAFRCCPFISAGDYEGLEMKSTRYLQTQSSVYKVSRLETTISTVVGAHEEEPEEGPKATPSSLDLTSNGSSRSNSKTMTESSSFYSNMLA

C[C@@H](NC(=O)[C@@H](N)Cc1ccc(O)cc1)C(=O)NCC(=O)N[C@@H](Cc1ccccc1)C(=O)NC(C)(C)C(=O)N[C@@H](Cc1c[nH]c2ccccc12)C(=O)OCc1cc(C(F)(F)F)cc(C(F)(F)F)c1 [NP41] (HELM PEPTIDE1{Y.[dA].G.F.[Aib].W.[FC(F)(F)c1cc(CO[*:1])cc(C(F)(F)F)c1]}$$$$V2.0; N-terminus assumed)
Ki (rat NK1 (rNK1) receptor; Affinity (Ki, nM) rNK1, Table 32): 3.4 nM | Ki [1]: 0.008 nM | EC50 ([2]; Table 32): 37.7 nM | Emax [2, 5]: 65% | EC50 ([3]; Table 32): 105 nM | Emax [3, 6]: 36% | IC50 (δ opioid receptors (MVD)): 36.2 nM

CSCC[C@H](NC(=O)[C@H](Cc1ccccc1)NC(=O)CNC(=O)[C@@H](CS)NC(=O)[C@@H](N)Cc1ccc(O)cc1)C(=O)N1CCC[C@H]1C(=O)N[C@@H](CC(C)C)C(=O)N[C@@H](Cc1c[nH]c2ccccc12)C(=O)OCc1cc(C(F)(F)F)cc(C(F)(F)F)c1 [TY031] (HELM PEPTIDE1{Y.[dC].G.F.M.P.L.W.[FC(F)(F)c1cc(CO[*:1])cc(C(F)(F)F)c1]}$$$$V2.0; N-terminus assumed)
IC50 (δ opioid receptors (MVD)): 235 nM

Cc1cc(O)cc(C)c1C[C@H](N)C(=O)N[C@H](C)C(=O)N[C@@H](Cc1c[nH]c2ccccc12)C(=O)OCc1cc(C(F)(F)F)cc(C(F)(F)F)c1 [NP48]
IC50 (δ opioid receptors (MVD)): 408 nM | GPI μ-agonist, % at 1 μM (μ opioid receptors (GPI); Table 36): 20.4% at 1 μM

C[C@@H](NC(=O)[C@@H](N)Cc1ccc(O)cc1)C(=O)NCC(=O)N[C@@H](Cc1ccccc1)C(=O)N1CCC[C@H]1C(=O)N[C@@H](Cc1c[nH]c2ccccc12)C(=O)OCc1cc(C(F)(F)F)cc(C(F)(F)F)c1 [NP39] (HELM PEPTIDE1{Y.[dA].G.F.P.W.[FC(F)(F)c1cc(CO[*:1])cc(C(F)(F)F)c1]}$$$$V2.0; N-terminus assumed)
Ki [1]: 0.1 nM | IC50 (μ opioid receptors (GPI); [7]): 259 nM

CCCC[C@H](NC(=O)[C@H](Cc1ccccc1)NC(=O)CNC(=O)[C@@H](C)NC(=O)[C@@H](N)Cc1c(C)cc(O)cc1C)C(=O)N1CCC[C@H]1C(=O)N[C@@H](CC(C)C)C(=O)N[C@@H](Cc1c[nH]c2ccccc12)C(=O)NCc1cccc(C(F)(F)F)c1 [TY053]
Ki [1]: 1.04 nM | Emax [3, 8]: 20%

CSCC[C@H](NC(=O)[C@H](Cc1ccccc1)NC(=O)CNC(=O)[C@@H](C)NC(=O)[C@@H](N)Cc1ccc(O)cc1)C(=O)N1CCC[C@H]1C(=O)N[C@@H](CC(C)C)C(=O)N[C@@H](Cc1c[nH]c2ccccc12)C(=O)N(C)Cc1cc(C(F)(F)F)cc(C(F)(F)F)c1 [TY028]
Emax [2, 9]: 59% | Emax [3, 8]: 52% | IC50 (δ opioid receptors (MVD)): 11.2 nM | IC50 (μ opioid receptors (GPI); [10]): 971 nM | Kb ([4]; GPI/LMMP SP antagonist (Ke; nM), Table 39): 4.6 nM

COc1cc(COC(=O)[C@H](Cc2c[nH]c3ccccc23)NC(=O)[C@H](CC(C)C)NC(=O)[C@@H]2CCCN2C(=O)[C@H](CCSC)NC(=O)[C@H](Cc2ccccc2)NC(=O)CNC(=O)[C@@H](C)NC(=O)[C@@H](N)Cc2ccc(O)cc2)cc(OC)c1 [TY030]
Emax [2, 9]: 61% | Emax [3, 8]: 59% | IC50 (μ opioid receptors (GPI); [10]): 31 nM

N[C@@H](Cc1ccc(O)cc1)C(=O)NCC(=O)N[C@@H](Cc1c[nH]c2ccccc12)C(=O)OCc1cc(C(F)(F)F)cc(C(F)(F)F)c1 [NP42]
Ki (rat NK1 (rNK1) receptor; Ki (nM) rNK1, Table 33): 0.36 nM | Ki [1]: 0.003 nM | MVD δ-agonist, % at 1 μM (δ opioid receptors (MVD); Table 36, at 1 μM): 7.5% at 1 μM | GPI μ-agonist, % at 1 μM (μ opioid receptors (GPI); Table 36): 2.6% at 1 μM | GPI SP-antagonist activity @ 1 μM ([4]; Table 36, @ 1 μM): None @ 1 μM

CSCC[C@H](NC(=O)[C@H](Cc1ccccc1)NC(=O)CNC(=O)[C@@H](C)NC(=O)[C@@H](N)Cc1ccc(O)cc1)C(=O)N[C@@H](Cc1c[nH]c2ccccc12)C(=O)OCc1cc(C(F)(F)F)cc(C(F)(F)F)c1 [NP38] (HELM PEPTIDE1{Y.[dA].G.F.M.W.[FC(F)(F)c1cc(CO[*:1])cc(C(F)(F)F)c1]}$$$$V2.0; N-terminus assumed)
EC50 ([2]; Table 32): 1.1 nM | Emax [2, 5]: 36% | EC50 ([3]; Table 32): 0.8 nM | Emax [3, 6]: 51% | IC50 (δ opioid receptors (MVD)): 9.07 nM | IC50 (μ opioid receptors (GPI); [7]): 393 nM | Kb [4, 11]: 2 nM

CSCC[C@H](NC(=O)[C@H](Cc1ccccc1)NC(=O)CNC(=O)[C@@H](C)NC(=O)[C@@H](N)Cc1ccc(O)cc1)C(=O)N1CCC[C@H]1C(=O)N[C@@H](CC(C)C)C(=O)N[C@@H](Cc1c[nH]c2ccccc12)C(=O)N(C)Cc1ccccc1 [TY026]
Ki [1]: 0.001 nM | Emax [2, 9]: 93% | IC50 (δ opioid receptors (MVD)): 7.89 nM | IC50 (μ opioid receptors (GPI); [10]): 86.7 nM

CC(C)C[C@H](NC(=O)[C@@H]1CCCN1C(=O)[C@H](Cc1ccccc1)NC(=O)CNC(=O)[C@@H](C)NC(=O)[C@@H](N)Cc1ccc(O)cc1)C(=O)N[C@@H](Cc1c[nH]c2ccccc12)C(=O)OCc1cc(C(F)(F)F)cc(C(F)(F)F)c1 [TY001, H-Tyr-DAla-Gly-Phe-Pro-Leu-Trp-O-3,5-Bzl(CF3)2]
Ki (rat NK1 (rNK1) receptor; Affinity rNK1 (Ki; nM), Table 39): 1.56 nM | IC50 (rat NK1 (rNK1) receptor; LogIC50, rNK1, [3H]Substance P, Table 6, logarithm of IC50 (negative), CHO cell membranes): 5.01 nM | Ki (rat NK1 (rNK1) receptor; read-out: Ki, rNK1): 1.6 nM | IC50 [1]: 0.00501 nM | Ki [1]: 0.0023 nM | species difference between affinities at rNK1 and hNK1 ([1]; Ki rNK1 vs Ki hNK1): 700 fold | Kb ([4]; Substance P antagonist, GPI, Ke, in the presence of 1 μM naloxone): 3.6 ± 1.1 nM

C[C@@H](NC(=O)[C@@H](N)Cc1ccc(O)cc1)C(=O)NCC(=O)N[C@@H](Cc1ccc(F)cc1)C(=O)OCc1cc(C(F)(F)F)cc(C(F)(F)F)c1 [NP62]
Ki [1]: 0.2 nM | IC50 (δ opioid receptors (MVD)): 184 nM | IC50 (μ opioid receptors (GPI); [12]): 208 nM | Kb [4, 13]: 51.8 nM

C[C@@H](NC(=O)[C@H](Cc1ccccc1)NC(=O)CNC(=O)[C@@H](C)NC(=O)[C@@H](N)Cc1ccc(O)cc1)C(=O)N[C@@H](Cc1c[nH]c2ccccc12)C(=O)OCc1cc(C(F)(F)F)cc(C(F)(F)F)c1 [NP40] (HELM PEPTIDE1{Y.[dA].G.F.[dA].W.[FC(F)(F)c1cc(CO[*:1])cc(C(F)(F)F)c1]}$$$$V2.0; N-terminus assumed)
EC50 ([2]; Table 32): 71.3 nM | Emax [2, 5]: 89% | EC50 ([3]; Table 32): 93.1 nM | Emax [3, 6]: 19% | IC50 (δ opioid receptors (MVD)): 58 nM | IC50 (μ opioid receptors (GPI); [7]): 528 nM | Kb [4, 11]: 608 nM

C[C@@H](NC(=O)[C@@H](N)Cc1ccc(O)cc1)C(=O)NCC(=O)N[C@@H](Cc1ccccc1)C(=O)NCC(=O)N[C@@H](Cc1c[nH]c2ccccc12)C(=O)OCc1cc(C(F)(F)F)cc(C(F)(F)F)c1 [NP30] (HELM PEPTIDE1{Y.[dA].G.F.G.W.[FC(F)(F)c1cc(CO[*:1])cc(C(F)(F)F)c1]}$$$$V2.0; N-terminus assumed)
IC50 (μ opioid receptors (GPI); [7]): 25.7 nM

C[C@@H](NC(=O)[C@@H](N)Cc1ccc(O)cc1)C(=O)NCC(=O)N[C@@H](Cc1c[nH]c2ccccc12)C(=O)OCc1cc(C(F)(F)F)cc(C(F)(F)F)c1 [NP44] (HELM PEPTIDE1{Y.[dA].G.W.[FC(F)(F)c1cc(CO[*:1])cc(C(F)(F)F)c1]}$$$$V2.0; N-terminus assumed)
Ki (rat NK1 (rNK1) receptor; Ki (nM) rNK1, Table 33): 3.4 nM | IC50 (δ opioid receptors (MVD)): 303 nM | IC50 (μ opioid receptors (GPI); [12]): 844 nM | Kb [4, 13]: 5 nM

C[C@@H](NC(=O)[C@@H](N)Cc1ccc(O)cc1)C(=O)NCC(=O)N[C@@H](Cc1ccccc1)C(=O)NCCC(=O)N[C@@H](Cc1c[nH]c2ccccc12)C(=O)OCc1cc(C(F)(F)F)cc(C(F)(F)F)c1 [NP32] (HELM PEPTIDE1{Y.[dA].G.F.[bAla].W.[FC(F)(F)c1cc(CO[*:1])cc(C(F)(F)F)c1]}$$$$V2.0; N-terminus assumed)
IC50 (μ opioid receptors (GPI); [7]): 435 nM

C[C@@H](NC(=O)[C@@H](N)Cc1ccc(O)cc1)C(=O)NCC(=O)N[C@@H](Cc1ccccc1)C(=O)NCCCC(=O)N[C@@H](Cc1c[nH]c2ccccc12)C(=O)OCc1cc(C(F)(F)F)cc(C(F)(F)F)c1 [NP34] (HELM PEPTIDE1{Y.[dA].G.F.[O=C(CCCN[*:1])[*:2]].W.[FC(F)(F)c1cc(CO[*:1])cc(C(F)(F)F)c1]}$$$$V2.0; N-terminus assumed)
Ki [1]: 0.001 nM | EC50 ([2]; Table 32): 16.5 nM | Emax [2, 5]: 40% | EC50 ([3]; Table 32): 17.4 nM | Emax [3, 6]: 27% | IC50 (δ opioid receptors (MVD)): 67.9 nM | IC50 (μ opioid receptors (GPI); [7]): 200 nM | Kb [4, 11]: 0.96 nM
